Reference: the pKa sets of Baltruschat and Czodrowski (2020)

Details: acidic group

Compound	pKa
C[NH2+]CC(=O)c1ccc(O)cc1	7.7
C=CCCC(=O)O	4.68
O=C(O)CC1CCCCO1 (stereo unspecified)	4.39
Sc1cccc2ncccc12	6.48
O=c1ccc(Br)ccc1O	6.32
Cc1cc(C(CC(=O)O)c2ccccc2)ccc1O (stereo unspecified)	4.67
CC1(C)[C@H]2CC[C@@]1(C)[C@@H](O)[C@@H]2C(=O)O	2.74
O=C(O)CCBr	3.86
COc1ccc2c(c1)[nH]c1c(C)nccc12	13.5
C[n+]1c2ccccc2nc2ccc(O)cc21	3
CC(C)(C(=O)O)C(C#N)c1ccccc1 (stereo unspecified)	3.95
CC[C@@H](C(=O)O)[C@@]1(O)C[C@H]2CC[C@@H]1C2	4.26
Cc1nnc(NS(=O)(=O)c2ccc(O)cc2)s1	5.37
O=C1CN(C(=O)c2ccccc2)C(=S)N1	6.5
O=C(O)c1c2ccccc2[nH+]c2ccccc12	3
NC(=S)Nc1cccc([N+](=O)[O-])c1	11.1
Cc1ccc2[nH]nnc2c1	8.9
C[NH+](C)Cc1cc(Cl)cc(C[NH+](C)C)c1O	5.2
O=C(O)/C(Cl)=N/O	1.5
CNC(=O)c1ncnc2nc[nH]c12	8.9
[O-]c1cc(O)c2ccccc2[nH+]1	5.86
O=C(c1ccccc1)c1cccc(O)c1	9
CCCCCCCCCC(=O)O	4.89
Oc1ccc2[nH]ncc2c1	10.1
Cn1c(=O)c2cn[nH]c2n(C)c1=O	9.26
Cc1cc(C)c(O)c(C)c1	10.9

Compound	pKa
C[NH+](C)CCc1c[nH]c2ccc(O)cc12	9.73
Cc1nc(-c2ccccc2[S-])[nH]c1C	9
Oc1cc[nH+]nc1	1.07
CC(=O)c1ccc(O)c([N+](=O)[O-])c1	5.09
Cn1cnc2c(O)[nH+]c(N)nc21	3.07
CC(=O)NCc1cc(C)cc(CNC(C)=O)c1O	9
Cc1ccc(S(=O)(=O)NCCC(=O)[O-])cc1	11.2
Sc1nnco1	3.85
CC(C)(/C=C/C(=O)[O-])c1ccccc1O	10.7
CC(=O)C(C(C)=O)c1ccccc1	9.32
O=C1COC=C([O-])C1=O	10.5
CCC#CC#CC(=O)O	1.91
Cn1c(=O)[nH]c2nc[nH]c2c1=O	7.88
O=C(O)/C=C/c1cccc([N+](=O)[O-])c1	4.08
Cc1ccccc1C(O)C(C(=O)O)c1ccc(-c2ccccc2)cc1 (stereo unspecified)	4.19
Cc1ccc([P+](c2ccc(C)cc2)(c2ccc(C)cc2)C2c3ccccc3-c3ccccc32)cc1	9.64
Cn1cnc2nc(N)[nH+]c(O)c21	3.57
O=C1C=CC(=O)/C(=N/O)N1	8.4
O=c1oc2cc(O)ccc2cc1-c1nc2ccccc2s1	7.02
COc1cccc(/C=N/O)c1	10.6
CCCc1c(-c2ccccc2)n[nH]c1O	8
Nc1ccc(S(=O)(=O)Nc2nncs2)cc1	4.77
CC(=O)CN=O	8.4
CCOC(=O)c1n[nH]c2c(c1=O)c(=O)n(C)c(=O)n2C	7.32
Nc1ccc(B(O)O)c([N+](=O)[O-])c1	9.64

Same assay, conditions: basic group

Compound	pKa
CN(C1=NCCO1)c1ccccc1	8.51
CCN(CC)CCCNS(=O)(=O)c1ccc(OC)c(OC)c1OC	9.54
C=C(C)C(=O)NCCN(CC)CC	9.37
CCN(CC)CC(C)Nc1c2ccc(Cl)cc2nc2ccc(OC)cc12 (stereo unspecified)	9.65
COc1ccccc1/N=C/N(C)C	8.11
Nc1cccnn1	5.19
CCCc1nc2cc(OCC)ccc2[nH]1	6.12
Nc1nc2ccccc2[nH]1	7.49
COc1ccc2c(c1)[nH]c1c(C)nccc12	7.73
CCCCCn1ccnc1	7.12
Nc1ncc(-c2ccccc2)s1	4.9
CSc1cccc(N)c1	4.05
C/C(N)=N/N(C)C	10
C[C@H](CCCNCc1ccccc1)[C@H]1CC[C@H]2[C@@H]3[C@@H](O)C[C@@H]4C[C@H](O)CC[C@]4(C)[C@H]3CC[C@]12C	9.05
CCOCCn1c(CN2CCCN(CCCCn3cc(C(=O)[O-])cn3)CC2)nc2ccccc21	9.1
O=C1CN(C(=O)c2ccccc2)C(=S)N1	-6.6
CCN(C)N(CC)CC	7.3
Cc1ccc2cccnc2c1	5.25
[O-]c1ccncn1	8.59
CCCCc1c(C)nc(NCC)nc1[O-]	11
NC(=S)C([NH3+])Cc1ccccc1 (stereo unspecified)	-8.63
Nc1nccc2c1ncn2CCOCP(=O)([O-])[O-]	7.87
NCC(N)CN	9.59
Nc1ccnc2c([O-])cccc12	10.7

Compound	pKa
Clc1cncc(Cl)c1	0.55
Nc1nc(N)nc(N(CCO)CCO)n1	5.1
[S-]c1ccnc([S-])n1	11.2
CCOCCn1c(CN2CCN(CCCCn3cccn3)CC2)nc2ccccc21	7.9
Cn1nncc1Nc1ccccc1	1.73
COc1ccc2c3c1O[C@H]1[C@@H](O)C=C[C@H]4[C@@H]([C@H]2O)N(C)CC[C@@]341	7.12
C/N=c1/scc(C)n1C	9.97
c1ccc(Cc2cc(-c3ccccc3)nnc2NCCN2CCOCC2)cc1	6.95
Nc1ccc(Cl)cc1Cl	2.07
O=C([O-])CC(c1ncc[nH]1)c1ncc[nH]1	6.9
Cn1c(-c2ccccn2)nc2ccccc21	4.47
CCNc1nc(Cl)nc(NC(C)C)n1	1.61
Nc1cccc([NH3+])c1O	2.7
CCNCc1ccc(C)cc1	10
C[C@@H](O)[C@H](CCC=O)O[C@H]1O[C@H](C)[C@@H](N(C)C)[C@H](O)[C@H]1O	7
CN(C)c1ccc2c(c1)Sc1cc(N(C)C)ccc1N2	5.53
C#C[C@]1(O)C[C@H](C)N(C)[C@@H]2CCCC[C@H]21	9.22
Nn1nnnc1-c1ccccc1	-0.62
O=[N+]([O-])c1ccc2[nH]c(C(F)(F)Cl)nc2c1	0.77
Nc1nc(N)c2ccccc2n1	8.12
CCCCCCCCCCCC[NH2+]CCCN	8.37
CC(C)N(C(C)C)C(C)C	11.9
Cc1cc(NCCC[NH+](C)C)c2c([N+](=O)[O-])cccc2n1	6.41
[NH3+]CCCc1cccnc1	5.19

Compound	pKa
CCCCNCC(=O)Nc1c(C)cccc1C	8.04
CN(C)CCNCCN	9.91
COc1ccc2c3c1O[C@H]1[C@@H](O)C=C[C@H]4[C@@H](C2)N(CCC#N)CC[C@@]341	5.68
NCc1ccc(Cl)cc1	9.24
CCN(CC)C(C)O (stereo unspecified)	10.2
NC(Cc1c[nH]c2ccccc12)C(=O)[O-] (stereo unspecified)	9.44
NCCCCCc1ccccc1	10.5
OCCCCNCl	1.49
CCNCCC(=O)[O-]	10.6
CN(C)Cc1ccc(C[NH+](C)C)c(O)c1O	6.39
Cn1c(=O)[nH]c2nc[nH]c2c1=O	1.19
CC1CCCCN1 (stereo unspecified)	11
CCNCC#CCNCC	8.32
CCOC(=O)c1cc(-c2ccccc2)nnc1NCCN1CCOCC1	6.67
Cc1nc2cncnc2nc1C	2.93
CNCCN(C)CCNC	10.4
O=C([O-])/C=C\c1c[nH]cn1	6.7
Cc1cc(=O)n(-c2ccccc2)n1C	1.45
CCCCCCCCCCCCCN	10.6
Nc1ccc(S(=O)(=O)Nc2nncs2)cc1	2.15
CNC(C)C(=O)[O-] (stereo unspecified)	10.2
Cc1ccc(/N=N/c2ccc(N(C)C)cc2)cc1C	2.37
